Patent US20140140952A1, “D-Alanine Ester of Sp-Nucleoside Analog” (IDENIX PHARMACEUTICALS, INC., priority 2012, published 2014)

Legend:
[1] = Stability in human intestinal microsomes; assay type: in vitro ADME; settings: human intestinal microsomes 1.0 mg/mL, 10 μM, NADPH, 60 min
Method: (§1) Stability of test compounds was determined in subcellular fractions (microsomes and S9) of human liver and intestine in duplicate for each matrix. Pooled liver and intestinal microsomal, intestinal and liver S9 proteins (1.0 mg/mL), suspended in incubation buffer (100 mM potassium phosphate, pH 7.4, 5 mM MgCl2, and 0.1 mM EDTA), were preincubated for 5 min at 37° C. with 10 μM of a test compound from a 10 mM stock solution in DMSO (final DMSO concentration was 0.1%); the reaction was initiated by the addition of NADPH (3 mM final concentration). At specific times (0 and 60 min), 0.1 mL samples were taken and the reaction terminated by the addition of 4 volumes of stop solution (acetonitrile with 500 ng/mL carbutamide as an internal standard). The samples were vortexed for 30 sec and then centrifuged at 16,000 g for 10 min. Aliquots of supernatants (100 μL each) were transferred to 96 deep-well plates preloaded with 100 μL distilled water and analyzed after mixing by LC-MS/MS. The MS peak area ratio of the test compound versus the internal standard was calculated and percent unchanged test compound over 60 minutes was calculated using this ratio.

HCV genotype 1b replicon = assay: HCV replicon assay (Zluc luciferase reporter); assay type: cell-based; settings: Hepatitis C virus, Zluc cells, 72 hours
Method: Huh-7-derived cell line (Zluc) that harbors an HCV genotype 1b replicon and a luciferase reporter gene was grown in Dulbecco's Modified Eagle Medium (DMEM) supplemented with 10% fetal bovine serum, 2 mM GlutaMAX, 1% MEM nonessential amino acids, 100 IU/mL penicillin, 100 μg/mL streptomycin, and 0.5 mg/mL Geneticin® (G418). For dose response testing the cells were seeded in 96-well plates at 7.5×10^3 cells per well in a volume of 50 μL, and incubated at 37° C./5% CO2. Drug solutions were made up freshly in Huh-7 media as 2× stocks. […] were prepared from these stocks in DMEM without G418. At least three hours after Zluc cells were seeded, drug treatment was initiated by adding 50 μL of drug dilutions to the plates in duplicate. Final concentrations of drug ranged from 100 μM to 0.0000512 μM. Cells were then incubated at 37° C./5% CO2. […] For this, media was removed from the plates via gentle tapping. Fifty microliters of ONE-glo luciferase assay reagent was added to each well. The plates were shaken gently for 3 min at room temperature and luminescence was measured on a Victor^3 V 1420 multilabel counter (Perkin Elmer) with a 1 second read time using a 700 nm cut-off filter. The EC50 values were calculated from dose response curves from the resulting best-fit equations determined by Microsoft Excel and XLfit 5.2 software. […]

[2] = Stability in human liver microsomes; assay type: in vitro ADME; settings: human liver microsomes 1.0 mg/mL, 10 μM, NADPH, 60 min
Method: as §1

[3] = Plasma pharmacokinetics following a single oral dose in CD-1 mice; assay type: in vivo; settings: CD-1 male mice, single oral dose 10 mg/kg for I or 25 mg/kg for II in PEG 200; plasma 2′-methyl-2′-fluorouridine; 4, 12, 24 hours
Method: Plasma samples were analyzed for 2′-methyl-2′-fluorouridine (2′-Me-2′-F-U) by LC-MS/MS. The internal standard (IS) was D3-2′-F-2′-Me-G. For protein precipitation and extraction, each plasma sample (50 μL) was treated with 500 μL of 0.2% formic acid in acetonitrile and 20 μL of the internal standard working solution. After vortexing and centrifugation, 500 μL of the sample extracts were transferred to a new plate, dried under N2 at ˜28° C. and reconstituted with 75 μL of 0.2% FA in water. The extracts were chromatographed on an Aquasil C18 column using a gradient system of 0.2% formic acid in water and acetonitrile. The analytes were detected and quantified by tandem mass spectrometry in positive ion mode on an MDS Sciex API5000 equipped with a Turbo Ionspray® interface. The calibration range was 0.500 (LLOQ) to 200 ng/mL in mouse plasma.

[4] = Liver pharmacokinetics (triphosphate) following a single oral dose in CD-1 mice; assay type: in vivo; settings: CD-1 male mice, single oral dose 10 mg/kg for I or 25 mg/kg for II in PEG 200; liver 2′-methyl-2′-fluorouridine triphosphate; 4, 12, 24 hours
Method: Liver samples were analyzed for the active species 2′-methyl-2′-fluorouridine triphosphate (2′-Me-2′-F-U TP) by LC-MS/MS. […] Internal standard solution was added to the homogenate followed by neutralization with 20% ammonium hydroxide solution and addition of 500 μL 1% formic acid. The tissue samples were extracted by weak anion exchange solid phase extraction (SPE). Post extraction, the eluates were evaporated under nitrogen, followed by reconstitution before injection onto the LC-MS/MS system. […] The calibration range was 10 to 10000 pmol/mL in mouse liver homogenate (50 to 50000 pmol/g of mouse liver).

[5] = Cytotoxicity evaluation, CellTiter-Blue Cell Viability Assay; assay type: cell-based; settings: human, Zluc cells (Huh-7-derived cell line), read-out: HCV Replicon CC50
Method: For cytotoxicity evaluation, Zluc cells were treated with compound as described herein, and cell viability was monitored using the CellTiter-Blue Cell Viability Assay (Promega) by adding 20 μL of the assay solution to each well. The plates were then incubated at 37° C./5% CO2 for at least 3 hours. Fluorescence was detected in plates using excitation and emission wavelengths of 531 and 595 nm, respectively, in a Victor^3 V 1420 multilabel counter (Perkin Elmer) and CC50 values were determined using Microsoft Excel and XLfit 5.2 software.

Row | Compound | Stability (expressed as percent remaining) HIM (1 hr) [1] | EC50 (HCV genotype 1b replicon) | Stability (expressed as percent remaining) HLM (1 hr) [2] | Ms Plasma 2′-Me-2′-F-U AUC (pmol · hr/mL at 1 μmol/kg) [3] | Ms Liver 2′-Me-2′-F-U TP AUC (pmol · hr/g at 1 μmol/kg) [4] | CC50 [5]
1 | CC(C)OC(=O)[C@@H](C)N[P@@](=O)(OCC1O[C@@H](n2ccc(=O)[nH]c2=O)[C@](C)(F)[C@@H]1O)Oc1ccccc1 (single isomer, unassigned) [Compound (Ia)] | +++++ (80% < +++++) | > 10 µM | ++++ (60% < ++++ ≦ 80%) | +++ (400 < +++ ≦ 1000) | +++++ (1600 < +++++) | > 50 µM
2 | CC(C)OC(=O)[C@@H](C)N[P@](=O)(OCC1O[C@@H](n2ccc(=O)[nH]c2=O)[C@](C)(F)[C@@H]1O)Oc1ccccc1 (single isomer, unassigned) [Compound (Ib), D-Alanine, N—((SP,2′R)-2′-deoxy-2′-fluoro-2′-methyl-P-phenyl-5′-uridylyl)-, 1-methylethyl ester] | +++++ (80% < +++++) | > 10 µM | +++++ (80% < +++++) | ++ (100 < ++ ≦ 400) | +++ (400 < +++ ≦ 1000) | > 50 µM
